Reference: patent US10729659B2, “Nanogel-mediated drug delivery” (The Cleveland Clinic Foundation, priority 2012, dated 2020)

Columns and labels:
[1] = system: p21; assay: Western blotting of p21; assay type: cell-based, human; conditions: MCF-7/Adr
Experimental: (§1) Whole cell lysates, were made by lysing 1×10^6 treated or untreated cells, with RIPA buffer (Sigma-Aldrich, St. Louis, Mo.) containing 1× protease inhibitor cocktail (Calbiochem, Gibbstown, N.J.). Lysates were collected by centrifugation at 14,000 rpm for 15 min Protein concentration was determined by a bicinchoninic acid (BCA) assay kit (Pierce, Rockford, Ill.). 20-40 μg proteins of cell lysates were electrophoresed through 13.5% SD Spolyacrylamide gel or 4-15% linear pre-cast polyacrylamide gradient gel (Bio-Rad Laboratories, Hercules, Calif.) and transferred to polyvinylidene difluoride (PVDF) membranes (GE Healthcare Bio-sciences, corp., Piscataway, N.J.). The blots were probed for mouse monoclonal p21 (Cell Signaling Technology, Inc., Danvers, Mass.), mouse monoclonal DNMT1 (Abcam Inc., Cambridge, Mass.), and mouse monoclonal anti-actin (Sigma-Aldrich, St. Louis, Mo.). For detection of bound antibody, PVDF membrane was incubated with horse radish—tagged, goat anti-mouse antibody. After incubation membrane was washed with TBST, and stained with enhanced chemiluminescence (ECL) reagent or ECL plus reagent (GE Healthcare Bio-sciences, corp., Piscataway, N.J.) according to manufacturer protocol.

[2] = target: T1, DNMT1 (Homo sapiens, UniProt P26358); assay: Western blot of DNMT1 depletion in MCF-7/Adr cells; assay type: cell-based
T1 construct: Whole cell lysates were collected at the end of each time point and western blot was done for the expression of DNMT1; endogenous in cells; host or cells: MCF-7/Adr cells
T1 sequence (P26358 whole entry): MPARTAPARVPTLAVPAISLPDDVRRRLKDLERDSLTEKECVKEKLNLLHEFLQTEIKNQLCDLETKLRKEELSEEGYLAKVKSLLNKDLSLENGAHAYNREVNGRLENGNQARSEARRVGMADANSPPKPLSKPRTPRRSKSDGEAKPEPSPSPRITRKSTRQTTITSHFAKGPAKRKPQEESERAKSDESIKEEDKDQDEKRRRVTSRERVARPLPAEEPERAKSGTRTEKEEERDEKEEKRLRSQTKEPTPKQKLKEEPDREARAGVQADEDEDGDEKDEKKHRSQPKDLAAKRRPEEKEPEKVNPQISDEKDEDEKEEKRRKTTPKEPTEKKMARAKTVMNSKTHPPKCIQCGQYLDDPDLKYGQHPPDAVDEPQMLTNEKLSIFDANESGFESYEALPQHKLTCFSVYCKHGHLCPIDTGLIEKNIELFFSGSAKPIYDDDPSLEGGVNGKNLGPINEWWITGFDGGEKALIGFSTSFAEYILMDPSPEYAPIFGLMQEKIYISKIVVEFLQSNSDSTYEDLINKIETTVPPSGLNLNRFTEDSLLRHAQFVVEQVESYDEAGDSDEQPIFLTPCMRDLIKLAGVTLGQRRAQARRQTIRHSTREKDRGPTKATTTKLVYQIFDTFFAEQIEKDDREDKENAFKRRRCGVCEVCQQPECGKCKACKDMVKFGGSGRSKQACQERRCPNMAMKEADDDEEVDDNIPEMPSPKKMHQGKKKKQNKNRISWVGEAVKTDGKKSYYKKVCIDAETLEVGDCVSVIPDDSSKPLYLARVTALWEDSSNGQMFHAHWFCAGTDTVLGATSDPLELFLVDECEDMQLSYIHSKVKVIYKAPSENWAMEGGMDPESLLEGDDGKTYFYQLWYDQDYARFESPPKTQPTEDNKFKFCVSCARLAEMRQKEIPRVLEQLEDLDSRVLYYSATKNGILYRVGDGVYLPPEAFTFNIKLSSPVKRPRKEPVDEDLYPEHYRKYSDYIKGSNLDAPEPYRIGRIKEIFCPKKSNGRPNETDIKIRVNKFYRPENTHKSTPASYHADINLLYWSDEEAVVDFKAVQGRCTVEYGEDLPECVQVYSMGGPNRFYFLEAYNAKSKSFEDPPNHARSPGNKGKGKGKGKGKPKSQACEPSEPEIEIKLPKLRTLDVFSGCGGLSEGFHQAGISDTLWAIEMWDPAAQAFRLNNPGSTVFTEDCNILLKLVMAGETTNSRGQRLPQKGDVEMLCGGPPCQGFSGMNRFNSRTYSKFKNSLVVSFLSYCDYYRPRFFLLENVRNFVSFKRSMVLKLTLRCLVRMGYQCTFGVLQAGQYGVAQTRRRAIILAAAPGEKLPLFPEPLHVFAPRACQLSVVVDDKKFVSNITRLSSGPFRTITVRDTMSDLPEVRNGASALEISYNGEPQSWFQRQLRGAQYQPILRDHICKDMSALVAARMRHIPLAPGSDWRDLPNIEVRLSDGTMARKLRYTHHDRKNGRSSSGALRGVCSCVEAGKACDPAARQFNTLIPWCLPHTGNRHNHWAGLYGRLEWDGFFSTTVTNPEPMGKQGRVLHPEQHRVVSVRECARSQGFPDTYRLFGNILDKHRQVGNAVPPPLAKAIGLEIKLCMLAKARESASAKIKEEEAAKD
Experimental: as §1, with “protocol. […]” for “protocol.”

[3] = DAC stability in liver extract; assay type: in vitro ADME; conditions: 15% w/v liver extract of athymic nude mice
Experimental: Freshly prepared DAC solution (50 μg/mL) or DAC loaded nanogel (equivalent drug concentration) was added in cell culture media (DMEM supplemented with 15% FBS and 1% penicillin-streptomycin), and incubated in cell culture incubator at 37° C. in a 5% CO2. Samples were incubated as 2 mL aliquots at 37° C., collected at various time points and lyophilized for 48 h at −48° C., 3.5 Pa, using FreeZone 4.5 (Labconco Corp., Kansas City, Mo.). DAC was extracted from lyophilized samples by adding 3 mL of methanol and kept on an orbital rotating shaker at 100 rpm in cold room overnight. 1 mL of methanolic extract was centrifuged at 14,000 rpm for 15 min at 4° C.; supernatant was collected and analyzed by HPLC. Identical protocol was followed for analyzing the stability of DAC in Mili Q water containing 15% heat inactivated or normal serum. Stability of DAC was also analyzed in 15% w/v liver extract of athymic nude mice using the indicated protocol.

[4] = system: P-gp; assay: Western blot of P-gp expression in MCF-7/Adr cells; assay type: cell-based, human
Excerpt: Proteins ([…]) from DAC treated or untreated cell lysates in RIPA buffer were probed for mouse monoclonal P-glycoprotein (calbiochem) and mouse anti-actin (Sigma-Aldrich, St. Louis, Mo.). Blotting and detection of the indicated proteins were done as per standard western blot protocol.

[5] = system: MCF-7/Adr xenograft tumor; assay: In vivo anti-tumor efficacy, drug-resistant breast cancer model; design: species or system athymic nude mice; conditions: single intravenous dose 15 mg/kg; vs control nanogel, DAC in solution
Experimental: A murine drug-resistant breast cancer model (MCF-7/ADR) was used to investigate the anti-tumor efficacy of DAC nanogels. To establish tumors, 1×10^6 MCF-7/ADR cells were suspended in 100 μL of matrigel (BD biosciences San Jose, Calif.) and injected in the mammary fat pad via a 27 G ½ gauge needle. Tumor nodules were allowed to grow to about 300 mm3 prior to receiving DAC nanogels (drug dose 15 mg/kg) or its respective controls (DAC in solution or Control Nanogels) intravenously. Post single treatment, tumor dimensions were measured with a digital caliper at regular time intervals and the tumor volume was calculated using the formula [length×(width)^2]/2. […] Data were expressed as mean±SEM (n=3 to 6). Variances in tumor growth were determined using one-way ANOVA test followed by Tukey test using GraphPad Prism version 4.0 for Windows (p<0.05).
In vivo anti-tumor efficacy of DAC nanogels in athymic nude mice bearing MCF-7/Adr xenograft tumor: To establish tumors, 1×10^6 MCF-7/Adr cells were suspended in 100 μL of matrigel (BD biosciences San Jose, Calif.) and injected in the mammary fat pad via a 27 G ½ gauge needle. […] Tumor dimensions were measured with a digital caliper at regular time interval and the tumor volume was calculated using the formula [length×(width)2]/2. Data were expressed as mean±SEM (n=3 to 6). […]

[6] = cited from earlier work
[7] = rat model; cited from earlier work

Question: Which “p21 protein expression (immunoblotting)” value [1] does the source give for `Nc1ncn([C@H]2C[C@H](O)[C@@H](CO)O2)c(=O)n1` [DAC, 5-aza-2′-deoxycytidine] here?
Answer: significant increase

Question: And the “Duration of DNMT1 depletion” value ([2]; 50 ng/mL)?
Answer: 24 h

Question: And the “DNMT1 levels vs untreated” value ([2]; 2, 3 and 5 days post treatment)?
Answer: No difference in DNMT1 levels

Question: What about the “Complete degradation of DAC, time post incubation” value [3] of the same compound?
Answer: 60 min

Question: And the “Decrease in P-gp protein expression vs untreated cells” value ([4]; day 1)?
Answer: 45%

Question: What about the P-gp expression ([4]; day 3) of the same compound?
Answer: returned to normal levels

Question: What about the “Tumor growth / tumor size” value [5] of the same compound?
Answer: not different

Question: What about the “In vivo half life” value [6] of the same compound?
Answer: 10 to 30 min

Question: And the Plasma protein binding ([6]; in vivo)?
Answer: poor plasma protein binding

Question: What about the Carcinogenicity [7] of the same compound?
Answer: has not
